Molecules are shown by their SMILES. Where only a bound is given, the exact number is not on record here.

The text below walks through data of patent US20250129070A1, “BIFUNCTIONAL ANDROGEN RECEPTOR COMPOUNDS” (priority 2023, published 2025).

In one assay the test system is AR / CBP ternary complex. The experiment in a line: Ternary complex formation assay (sandwich ELISA, AR capture / CBP detection) in VCaP cell lysates. The assay is classed as cell-based. The following applies: 1.5 hours treatment, sandwich ELISA (AR capture, CBP or p300 detection). The method, boiled down: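 Anti-AR (AR 441)-coated plates capture AR from lysates of VCaP cells grown ≥3 days at 50K/well in 5% charcoal-stripped FBS, dosed with bifunctional for 1.5 h and lysed 30 min at 4 °C. Co-captured CBP/p300 is probed with rabbit mAb and HRP anti-rabbit, then QuantaRed fluorescence (570/585) is read at 0, 5 and 15 min.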
In general terms: An ELISA detects its analyte on a solid surface through an enzyme-linked reagent.

The next assay relates to VCaP cells. The experiment in a line: VCaP growth inhibition assay. The assay is classed as cell-based. The following applies: 30 pM R1881, 9 days, CTG. The method, boiled down:
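Growth read by CTG luminescence after 9-day exposure to compound (final 100 nM–10 fM, 1:5 steps) plus 30 pM R1881, in phenol red-free DMEM with 5% CSS. Cells pre-incubated 72 h before dosing; IC50 by nonlinear 4-parameter regression.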

For the compound `COc1cc(OC2C(C)(C)C(NC(=O)c3ccc(N4CC5(CCC(C6CCC(n7nc(N8CCCc9cc(-c%10cnn(C)c%10)c(C(F)F)cc98)c8c7CCN(C(C)=O)C8)CC6)CC5)C4)cc3)C2(C)C)ccc1C#N` (stereo not shown) [Compound 380, 4-[7-[4-[5-acetyl-3-[7-(difluoromethyl)-6-(1-methylpyrazol-4-yl)-3,4-dihydro-2H-quinolin-1-yl]-6,7-dihydro-4Hpyrazolo[4,3-c]pyridin-1-yl]cyclohexyl]-2-azaspiro[3.5]nonan-2-yl]-N-[3-(4-cyano-3-methoxy-phenoxy)-2,2,4,4-tetramethyl-cyclobutyl]benzamide], in the assay on AR / CBP ternary complex, the EC50 (in general, the midpoint of the concentration-response curve) lay in the range of 1 to 10 nM. For the same compound, the IC50 – broadly, the concentration at which inhibition is half-maximal – with VCaP cells was 1 to 100 nM.
The corresponding values for `CC(=O)N1CCc2c(c(-c3cccc4cc(-c5ccc(CCC6CC7(C6)CN(c6ncc(C(=O)NC8C(C)(C)C(Oc9ccc(C#N)c(Cl)c9)C8(C)C)cn6)C7)nc5)ncc34)nn2C)C1` (stereo not shown) [Compound 229, 2-[6-[2-[5-[8-(5-acetyl-1-methyl-6,7-dihydro-4H-pyrazolo[4,3-c]pyridin-3-yl)-3-isoquinolyl]-2-pyridyl]ethyl]-2-azaspiro[3.3]heptan-2-yl]-N-[3-(3-chloro-4-cyano-phenoxy)-2,2,4,4-tetramethyl-cyclobutyl]pyrimidine-5-carboxamide] are 1 to 10 nM and 0.1 to 1 nM.
The corresponding values for `COC1CN(c2ncc(C(=O)NC3C(C)(C)C(Oc4ccc(C#N)c(Cl)c4)C3(C)C)cn2)CCC1CN1CCC(n2nc(N3CCCc4cc(-c5cnn(C)c5)c(C(F)F)cc43)c3c2CCN(C(C)=O)C3)CC1` (stereo not shown) [Compound 329, 2-[4-[[4-[5-acetyl-3-[7-(difluoromethyl)-6-(1-methylpyrazol-4-yl)-3,4-dihydro-2H-quinolin-1-yl]-6,7-dihydro-4H-pyrazolo[4,3-c]pyridin-1-yl]-1-piperidyl]methyl]-3-methoxy-1-piperidyl]-N-[3-(3-chloro-4-cyano-phenoxy)-2,2,4,4-tetramethyl-cyclobutyl]pyrimidine-5-carboxamide] are less than 1 nM and no more than 0.1 nM.
The corresponding values for `CC(=O)N1CCc2c(c(N3CCCc4cc(-c5cnn(C)c5)c(C(F)F)cc43)nn2CCCOC2CCN(c3ncc(C(=O)NC4C(C)(C)C(Oc5ccc(C#N)c(Cl)c5)C4(C)C)cn3)CC2)C1` (stereo not shown) [Compound 9, 2-[4-[3-[5-acetyl-3-[7-(difluoromethyl)-6-(1-methylpyrazol-4-yl)-3,4-dihydro-2H-quinolin-1-yl]-6,7-dihydro-4H-pyrazolo[4,3-c]pyridin-1-yl]propoxy]-1-piperidyl]-N-[3-(3-chloro-4-cyano-phenoxy)-2,2,4,4-tetramethyl-cyclobutyl]pyrimidine-5-carboxamide] are less than 1 nM and 0.1 to 1 nM.
`COc1cc(OC2C(C)(C)C(NC(=O)c3ccc(N4CCC(N5CCC(n6nc(N7CCCc8cc(-c9cnn(C)c9)c(C(F)F)cc87)c7c6CCN(C(C)=O)C7)CC5)C(C)C4)cc3)C2(C)C)ccc1C#N` (stereo not shown) [Compound 304, 4-[4-[4-[5-acetyl-3-[7-(difluoromethyl)-6-(1-methylpyrazol-4-yl)-3,4-dihydro-2H-quinolin-1-yl]-6,7-dihydro-4H-pyrazolo[4,3-c]pyridin-1-yl]-1-piperidyl]-3-methyl-1-piperidyl]-N-[3-(4-cyano-3-methoxy-phenoxy)-2,2,4,4-tetramethyl-cyclobutyl]benzamide] came in with an EC50 in the assay with AR / CBP ternary complex of less than 1 nM. Further, the IC50 in the assay with VCaP cells fell in the range of 0.1 to 1 nM.
Turning to `COc1cc(OC2C(C)(C)C(NC(=O)c3ccc(C#CC4CCC(N5CCC(n6nc(N7CCCc8cc(-c9cnn(C)c9)c(C(F)F)cc87)c7c6CCN(C(C)=O)C7)CC5)CC4)cc3)C2(C)C)ccc1C#N` (stereo not shown) [Compound 292, 4-[2-[4-[4-[5-acetyl-3-[7-(difluoromethyl)-6-(1-methylpyrazol-4-yl)-3,4-dihydro-2H-quinolin-1-yl]-6,7-dihydro-4H-pyrazolo[4,3-c]pyridin-1-yl]-1-piperidyl]cyclohexyl]ethynyl]-N-[3-(4-cyano-3-methoxy-phenoxy)-2,2,4,4-tetramethyl-cyclobutyl]benzamide], the EC50 with AR / CBP ternary complex is less than 1 nM. Moreover, in the assay on VCaP cells, the IC50 was in the range of 0.1 to 1 nM.
The corresponding values for `CC(=O)N1CCc2c(c(N3CCCc4cc(-c5cnn(C)c5)c(C(F)F)cc43)nn2C2CCN([C@@H]3CCN(c4ncc(C(=O)NC5C(C)(C)C(Oc6ccc(C#N)c(Cl)c6)C5(C)C)cn4)C3)CC2)C1` (stereo partly drawn) [Compound 335, 2-[(3R)-3-[4-[5-acetyl-3-[7-(difluoromethyl)-6-(1-methylpyrazol-4-yl)-3,4-dihydro-2H-quinolin-1-yl]-6,7-dihydro-4H-pyrazolo[4,3-c]pyridin-1-yl]-1-piperidyl]pyrrolidin-1-yl]-N-[3-(3-chloro-4-cyano-phenoxy)-2,2,4,4-tetramethyl-cyclobutyl]pyrimidine-5-carboxamide] are less than 1 nM and 0.1 to 1 nM.
In the assay with AR / CBP ternary complex, `COc1cc(OC2C(C)(C)C(NC(=O)c3ccc(N4CC5(CCC(N6CCC(n7nc(-c8cccc9cc(-c%10cnn(C)c%10)ncc89)c8c7CCN(C(C)=O)C8)CC6)CC5)C4)cc3)C2(C)C)ccc1C#N` (stereo not shown) [Compound 448, 4-[7-[4-[5-acetyl-3-[3-(1-methylpyrazol-4-yl)-8-isoquinolyl]-6,7-dihydro-4H-pyrazolo[4,3-c]pyridin-1-yl]-1-piperidyl]-2-azaspiro [3.5]nonan-2-yl]-N-[3-(4-cyano-3-methoxy-phenoxy)-2,2,4,4-tetramethyl-cyclobutyl]benzamide] registered an EC50 of less than 1 nM. The IC50 with VCaP cells lay in the range of 0.1 to 1 nM.
The corresponding values for `CC(=O)N1CCc2c(c(N3CCCc4cc(-c5cnn(C)c5)c(C(F)F)cc43)nn2C2CCN(C(=O)C3CCN(c4ccc5c(n4)CN(C4C(C)(C)C(Oc6ccc(C#N)c(Cl)c6)C4(C)C)C5=O)CC3)CC2)C1` (stereo not shown) [Compound 299, 4-[3-[2-[4-[4-[5-acetyl-3-[7-(difluoromethyl)-6-(1-methylpyrazol-4-yl)-3,4-dihydro-2H-quinolin-1-yl]-6,7-dihydro-4H-pyrazolo[4,3-c]pyridin-1-yl]piperidine-1-carbonyl]-1-piperidyl]-5-oxo-7H-pyrrolo[3,4-b]pyridin-6-yl]-2,2,4,4-tetramethyl-cyclobutoxy]-2-chloro-benzonitrile] are less than 1 nM and 0.1 to 1 nM.
The like results for `COc1cc(OC2C(C)(C)C(NC(=O)c3ccc(N4CCN(C5CCN(c6ccc(-c7cc8c(cn7)N(c7nn(C9CCOCC9)c9c7CN(C(C)=O)CC9)CCC8)cn6)CC5)CC4)cc3)C2(C)C)ccc1C#N` (stereo not drawn) [Compound 323, 4-[4-[1-[5-[l-(5-acetyl-1-tetrahydropyran-4-yl-6,7-dihydro-4H-pyrazolo[4,3-c]pyridin-3-yl)-3,4-dihydro-2H-1,7-naphthyridin-6-yl]-2-pyridyl]-4-piperidyl]piperazin-1-yl]-N-[3-(4-cyano-3-methoxy-phenoxy)-2,2,4,4-tetramethyl-cyclobutyl]benzamide] were, in that order, less than 1 nM and no more than 0.1 nM.
`COc1cc(OC2C(C)(C)C(NC(=O)c3ccc(N4CCC(CN5CCC(n6nc(N7CCCc8cc(-c9cnn(C)c9)c(C(F)F)cc87)c7c6CCN(C(C)=O)C7)CC5)C(OC)C4)cc3)C2(C)C)ccc1C#N` (stereo not shown) [Compound 332, 4-[4-[[4-[5-acetyl-3-[7-(difluoromethyl)-6-(1-methylpyrazol-4-yl)-3,4-dihydro-2H-quinolin-1-yl]-6,7-dihydro-4H-pyrazolo[4,3-c]pyridin-1-yl]-1-piperidyl]methyl]-3-methoxy-1-piperidyl]-N-[3-(4-cyano-3-methoxy-phenoxy)-2,2,4,4-tetramethyl-cyclobutyl]benzamide]: the EC50 in the assay with AR / CBP ternary complex is less than 1 nM. In the assay on VCaP cells, this compound returned an IC50 of no more than 0.1 nM.
